| melting point [°C] | SMILES |
| --- | --- |
| 234 to 235 | O=C1c2ccc(N3CCCC3)c3cc(Br)cc(c23)C(=O)N1O |
| 135 to 138 | Cn1ncc2c3cc(Cl)c(Cl)cc3n(C3OC(CO)C(O)C3O)c21 (configuration not stated) |
| 123 to 124 | COc1ccccc1Cc1ccc(C(=O)C2=C(O)C(=O)N(C(C)C)C2)o1 |
| 93 to 94 | Brc1ccc(Cc2nccc(-c3ccc(Br)cc3)n2)cc1 |
| 263 to 265 | Cc1cc2c(C)nc(N)nc2o1 |
| 104 to 106 | NC(Cc1ccc(F)cc1)=NO |
| 244 to 245 | NNC(=O)c1ccn2ncnc2c1 |
| 150 to 151 | CCC1(CC)OC(=O)N(c2cccc(Cl)c2)c2ccccc21 |
| 98 to 101 | Nc1nc(NCCCCCCNS(=O)(=O)c2cccc3ccccc23)nc2ccccc12 |
| 74 to 76 | CCN1C(=O)c2cccc(C)c2Oc2ncccc21 |
| 98 | CC(C)(C)OC(=O)COC[C@@H]1C[C@@H](SC(c2ccccc2)(c2ccccc2)c2ccccc2)CN1S(C)(=O)=O |
| 143 to 144 | Nc1cc(N2CC(CCc3ccccc3)OC2=O)ccn1 (configuration not stated) |
| 192 to 193 | NS(=O)(=O)c1ccc(-c2cnn(CC3=CCCCC3)c(=O)c2-c2ccc(F)cc2)cc1 |
| 317 to 323 | Sc1nc(-c2ccccc2)c(-c2cccnc2)[nH]1 |
| 172 | N#Cc1ccc(O[C@@H]2c3cccnc3C[C@H]2N2CCC[C@@H](N)C2)c(Cl)c1 |
| 240 to 242 | CCn1c(=O)c(C(N)=O)c(O)c2ccc(C)nc21 |
| 129 to 131 | COc1ccccc1-c1ccccc1C1=NC(C)(C)CO1 |
| 185 | CCCn1nc(SCCCCC(=O)O)c(C(=O)O)c1Cc1cc2c(cc1Cl)OCO2 |
| 73 to 75 | CC(C)CCOC1CCC(=O)N1 (configuration not stated) |
| 332 to 334 | O=C1Nc2cnc(N3CCN(c4ccccn4)CC3)nc2S/C1=C/c1ccc([N+](=O)[O-])cc1 |
| 168 to 170 | CC(=O)N1c2c(ccn3c(C)c(C)nc23)C(=O)[C@H](OC(=O)C(C)(C)C)[C@H]1c1ccccc1 |
| 83 to 85 | Fc1cc(Cl)c(OC(F)F)cc1-n1nc2c(c1Cl)CCCC2 |
| 112 to 114 | CC#CC(O)(C#CC)C1(Cl)CC(c2ccccc2)=CC=C1N (configuration not stated) |
| 247 | CC1CCN(c2c(-c3ccc(F)cc3Cl)c(C#N)nc3ncnn23)CC1 |
| 201 to 203 | O=C(O)CCNC(=O)c1ccccc1SSc1ccccc1C(=O)NCCC(=O)O |
| 221 to 224 | CCCc1cc(=O)oc2c(C(C)=O)c(O)cc(O)c12 |

| melting point [°C] | SMILES |
| --- | --- |
| 213 to 216 | NC(Cc1c2ccccc2cc2ccccc12)(C(=O)O)C1CC(C(=O)O)C1 (configuration not stated) |
| 218 to 219 | CCn1c(=O)c2c(nc(/C=C/c3ccc(F)c(Br)c3)n2C)n(CC)c1=O |
| 223 | N#Cc1nn(-c2c(Cl)cccc2Cl)c(N)c1-c1ccco1 |
| 127 to 128 | C=C1C(=O)N(C)CCC1(O)c1cccc(OC)c1 (configuration not stated) |
| 197 to 198 | Cn1cc(C(=O)NCc2ccc(Cl)cc2)c(=O)c2cc(CCCO)sc21 |
| 67 to 69 | Cc1ccc(CCc2ccccc2Br)c(N)c1 |
| > 70 | CCCCc1nn2c(-c3ccccc3)cnc2n1Cc1ccc(-c2ccccc2-c2nnn[nH]2)cc1 |
| 68 to 69 | CCCCCCCCCCCCOc1ccc2c(c1)C(CCNC(=O)CCC)CC2 (configuration not stated) |
| 242 to 244 | CCC(C)(C)Nc1c(NCc2ccc(F)cc2F)c(=O)c1=O |
| 195 to 220 | CC1(C)C(=O)Nc2cc3[nH]c(-c4ccccc4)nc3cc21 |
| 114 to 115 | Cc1ccc([N+](=O)[O-])cc1S(=O)(=O)N1CCOCC1 |
| 252 to 256 | CC(C)(C)C(=O)Nc1ccc2c(c1)ncn1c(=O)c(C(=O)O)cnc21 |
| 245 to 247 | O=c1c2ccoc2c2cccnc2n1-c1ccccc1 |
| 204 to 206 | CCCOc1cc2ccccc2c2c(=O)c(-c3ccc(OC)cc3)c(C)[nH]c12 |
| 88 to 89 | CCOC(=O)c1cn(-c2ccc(C(F)(F)F)cn2)nc1C |
| 167 to 168 | CNC(=O)c1ccc(C(=O)OC)cc1N |
| 123 to 124 | O=c1c2c(cc3n1CCCS3)CCCC2 |
| 150 | NC(=O)C1CCN(C(c2ccccc2)c2ccccc2)CC1 |
| 112 to 114 | COc1ccc(-c2cccc(NC(C)=O)c2)cc1OC1CCCC1 |
| 106 to 108 | CCC(CC)n1nnc2cc(C)c(C)c([N+](=O)[O-])c21 |
| 54 to 55 | COC(=O)CCc1cnoc1-c1ccc(Cl)c(Br)c1 |
| 116 | CN(C(=O)COc1nc2cccc(F)c2s1)c1ccccc1 |
| 192 | C=CC(=O)NCNC(=O)CCS(=O)(=O)Cl |
| 246 to 249 | CN1C(=O)C2(COc3cc4c(cc32)OCCO4)c2c(N3CCOCC3)cccc21 (configuration not stated) |
| 81 to 83 | CCOC(=O)C1=Cc2cc(-c3ccc(CC)cc3)ccc2OCC1 |
| 45 | CCCCCCCC(=O)C=Cc1ccc(O)c(OC)c1 |

| melting point [°C] | SMILES |
| --- | --- |
| 264 to 267 | Cc1nc2cnccc2n1-c1ccc2c(c1)CC(C(=O)O)C2 (configuration not stated) |
| 226 to 228 | COC(=O)C1=C(COCCn2c(C)nc(C)c2C)Nc2c(c(=O)n(C)c(=O)n2C)C1c1ccccc1Cl (configuration not stated) |
| 99 to 101 | CN1CCC(C(=O)CCc2ccccc2O)CC1 |
| 192 to 194 | COC(=O)C1=C(N)C(=O)NCC1 |
| 193 to 194 | COc1ccc(-c2cnc3[nH]cc(C(=O)NC4CCN(C)C4)c3n2)cc1OC (configuration not stated) |
| 114 to 117 | O=C(NS(=O)(=O)c1ccccc1-c1ccccc1)Oc1ccccc1 |
| 201 to 202 | CC(C)(C)c1cc2c(c(C(=O)Nc3ccc(S(=O)(=O)C(F)(F)F)cc3Cl)c1O)CCO2 |
| 285 to 287 | COc1ccc(C(=O)Nc2c(-c3cc(Cl)ccc3O)c3cc(C(F)(F)F)ccc3[nH]c2=O)cc1 |
| 91 to 93 | CC1(C)CN(CCO)C(=O)C(C)(C)N1 |
| 70 to 71 | CC1(C)COc2ccc(C#N)cc21 |
| 123 to 125 | CC(=O)N[C@@H](CSC(=O)[C@@H](C)c1ccc(CC(C)C)cc1)C(=O)O |
| 234 | COc1ccc(N(C)c2nc(N)nc3[nH]c4ccccc4c23)cc1 |
| 90 to 94 | COC(=O)c1ccc(Cn2c(=O)c3c(N4CCN(C)CC4)cc(Cl)cc3n(Cc3ccccc3)c2=O)cc1 |
| > 260 | Cc1cccc2nc(NC(=N)N)[nH]c12 |
| 207 to 208 | CCC(NCCN)(C(=O)O)c1cccc(Cl)c1 (configuration not stated) |
| 75 to 77 | COc1nccc(F)c1NC(=O)OC(C)(C)C |
| 124 | CCC(C)Cc1nc(-c2cc[nH]n2)nc(OC)c1-c1c(F)cc(F)cc1F (configuration not stated) |
| 194 | COc1ccc(C(=Cn2cc[nH]c2=O)CC(=O)O)cc1OC1CCCC1 |
| 222 to 223 | CC(C)(C)NC(=O)N1CCc2cc(S(=O)(=O)n3cc(-c4ccccc4)[nH]c3=O)ccc21 |
| 226 to 228 | COC1=C(OC)C(=O)c2cc(NC(C)=O)ccc2C1=O |
| 192 to 194 | Cc1oc2c(NC(=O)c3c(Cl)ccc(O)c3Cl)cccc2c1C |
| 202 to 203 | O=S(=O)(Nc1ncnc(Cl)c1Cc1cccc2ccccc12)c1ccc(Cl)cc1 |
| 147 to 149 | CCOC(=O)c1cnn(-c2ccc(OCC3CC3)c(C#N)c2)c1 |
| 140 to 143 | O=C1c2cc(O)ccc2CC1Cc1ccccc1 (configuration not stated) |
| 229 | C[C@H]1Cn2c(=O)[nH]c3ccc(Br)c(c32)CN1C(=O)OC(C)(C)C |
| 264 | CCOc1cc(-c2cc(C(F)(F)F)n3ncc(C(=O)O)c3n2)ccc1C(F)(F)F |

| melting point [°C] | SMILES |
| --- | --- |
| 115 | COC(COc1ccc(C(=O)NCC(NC(=O)OCc2ccccc2)C(=O)OC(C)(C)C)cc1)OC (configuration not stated) |
| 46.5 to 48 | O=CCc1c(O)c(Br)cc(F)c1F |
| 103 to 104 | CCOC(=O)CS(=O)(=O)CCC=C1SC=CS1 |
| 123 to 125 | COc1ccc(N)cc1CNC(C)=O |
| 146 to 149 | CCN(CCCOc1ccc(C(=O)O)cc1)c1ccc(Cl)cc1 |
| 136 to 138 | O=C(O)Cc1ccc(NC(=O)CCCCCNC(=O)OCc2ccccc2)cc1 |
| 113 to 114 | CCOC(=O)CCCCCc1oc(=O)[nH]c1-c1ccc(Cl)cc1 |
| 90 to 92 | COC(=O)c1cccc(C(=O)N(C)C)n1 |
| 117 to 118 | Cc1cc(-c2cccc(C(F)(F)F)c2)c2nc(C(F)(F)F)cnc2c1 |
| 150 to 152 | O=C(c1cccs1)c1cc(Cc2ccccc2)c(O)c2ccccc12 |
| 119 to 120 | Cn1c(CO)nc2ccc(Sc3ccccc3)nc21 |
| 68 to 70 | Cc1ccc2c(c1)CC1(CCC(=O)CC1)C2 |
| 92 to 93 | Cc1cc(Br)c(C)cc1N |
| 108 to 110 | CC(C)=CCC(CC=C(C)C)(C(=O)NO)S(=O)(=O)c1ccc(C)cc1 |
| 259 to 260 | Cc1nccc2[nH]c(=O)c(-c3noc(C4CC4)n3)cc12 |
| 216 to 218 | CCOC(=O)c1cn(C2CC2)c2nc(S(=O)(=O)c3ccc(C)cc3)c(F)cc2c1=O |
| 105 to 110 | Cc1ccc(S(=O)(=O)C2SC(=O)N(C(c3ccccc3)(c3ccccc3)c3ccccc3)C2=O)cc1 (configuration not stated) |
| 155 to 158 | Cc1ccccc1NC1=CC(=O)NCC1 |
| 190 | COc1ccc(I)c2c1CC(NC(C)=O)CC2 (configuration not stated) |
| 107 to 112 | COC(=O)Nc1c(Cl)ccc(Br)c1F |
| 58 to 60 | Cc1ccc2c(c1C)OC(=O)C2c1ccc(C(C)C)cc1 (configuration not stated) |
| 189 to 190 | COC(c1ccc(NC(=O)c2c(C)nn(C)c2C)cc1CC(C)C)(C(F)(F)F)C(F)(F)F |
| 151 to 153 | CNC(=O)C1CC2(CCN(CCCC(=O)c3ccc(F)cc3)C2)c2ccc(Cl)cc21 (configuration not stated) |
| 118 to 120 | Cc1ccccc1Nc1nc(N)nc2c(C)cccc12 |

| SMILES | melting point [°C] |
| --- | --- |
| CCN(C(C)=O)c1cccc(-c2ccnc3c([N+](=O)[O-])cnn23)c1 | 176 to 178 |
| C1=C(c2ccc3c(c2)OCO3)CCN(Cc2n[nH]c3ccccc23)C1 | 139 to 141 |
| CNC1=Nc2sc(Cl)cc2C(c2ccccc2)=NC1 | 247 to 250 |
| COC(=O)C1COC(c2ncn3c2CN(C)C(=O)c2c(Cl)cccc2-3)=N1 (configuration not stated) | 216 to 218 |
| CN1CCC(c2n[nH]c3ccc(F)cc23)CC1 | 202 to 204 |

Reference: a melting point compilation (Tetko et al.; mined from patent text by program, amines drawn as free bases though some values may be those of a salt)
